Results from patent US10174016B2 (BAYER AKTIENGESELLSCHAFT, priority 2014, dated 2019).
Read-outs that look alike come from different tables or passages of the source.

Legend:
human P2X3 receptor = human P2X3 receptor (Homo sapiens (Human), UniProt P56373); assay: Intracellular calcium measurement (FLIPR, Fluo-4) of antagonist activity at human P2X3 receptors; assay type: cell-based; settings: read-out: hP2X3 IC50
How it was run: (§1)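 Cells expressing human P2X3 or P2X2/3, loaded with Fluo-4, preincubated 30 min at 37° C. with compound (1% DMSO final), then challenged with α,β-Me-ATP at its EC80. Peak FLIPR fluorescence over 90 sec gave % response; IC50, maximal inhibition and Hill slope from triplicates.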

human P2X2/3 receptor = human P2X2/3 receptor (Homo sapiens (Human), UniProt P56373+Q9UBL9); assay: Intracellular calcium measurement (FLIPR, Fluo-4) of antagonist activity at human P2X2/3 receptors; assay type: cell-based
How it was run: as §1

[1] = human P2X3, FLIPR calcium assay, agonist α,β-Me-ATP
[2] = human P2X2/3, FLIPR calcium assay, agonist α,β-Me-ATP, read-out: hP2X2/3 IC50

Sequence of human P2X2/3 receptor (P56373 whole entry): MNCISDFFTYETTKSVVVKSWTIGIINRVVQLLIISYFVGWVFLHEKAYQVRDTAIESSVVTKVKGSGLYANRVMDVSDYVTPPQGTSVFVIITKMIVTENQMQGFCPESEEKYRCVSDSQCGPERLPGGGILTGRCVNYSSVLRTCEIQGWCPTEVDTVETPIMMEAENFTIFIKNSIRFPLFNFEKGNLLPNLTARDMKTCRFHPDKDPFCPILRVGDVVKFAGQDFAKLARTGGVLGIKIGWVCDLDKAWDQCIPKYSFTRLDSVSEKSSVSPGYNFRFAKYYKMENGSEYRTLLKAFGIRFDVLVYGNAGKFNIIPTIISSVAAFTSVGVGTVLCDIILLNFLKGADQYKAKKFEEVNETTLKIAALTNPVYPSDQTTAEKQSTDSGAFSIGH
Sequence of human P2X2/3 receptor (Q9UBL9 whole entry): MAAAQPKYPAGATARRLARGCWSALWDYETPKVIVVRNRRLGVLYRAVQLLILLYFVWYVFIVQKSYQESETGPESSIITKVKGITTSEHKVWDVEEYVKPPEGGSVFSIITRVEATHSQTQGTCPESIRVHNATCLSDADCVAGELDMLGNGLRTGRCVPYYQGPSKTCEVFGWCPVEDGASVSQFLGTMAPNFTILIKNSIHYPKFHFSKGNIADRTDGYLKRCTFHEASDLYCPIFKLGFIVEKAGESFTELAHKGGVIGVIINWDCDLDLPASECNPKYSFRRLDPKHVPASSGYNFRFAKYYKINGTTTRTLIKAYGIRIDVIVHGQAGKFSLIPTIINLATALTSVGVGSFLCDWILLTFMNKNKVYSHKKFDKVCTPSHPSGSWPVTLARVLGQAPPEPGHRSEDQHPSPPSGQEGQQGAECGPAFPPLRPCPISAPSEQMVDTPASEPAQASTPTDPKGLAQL
Sequence of human P2X3 receptor (P56373 whole entry): as the sequence (P56373 whole entry) above

SMILES | IC50 (human P2X3 receptor; [1]) [nM] | IC50 (human P2X2/3 receptor; [2]) [nM] | IC50 (human P2X3 receptor) [nM] | IC50 (human P2X2/3 receptor; hP2X2/3 IC50 (nM)) [nM]
Cc1cnc(-c2cc(OC3CCOCC3)cc(C(=O)N[C@@H](C)c3cnc(C(F)(F)F)nc3)c2)s1 [Example 145, 3-(5-Methyl-1,3-thiazol-2-yl)-5-(tetrahydro-2H-pyran-4-yloxy)-N-{(1S)-1-[2-(trifluoromethyl)pyrimidin-5-yl]ethyl}benzamide] | 271 | 4460 | – | –
Cc1cnc(-c2cc(OC3CC4(C3)CN(C(=O)OC(C)(C)C)C4)cc(C(=O)N[C@H](C)c3cnc(C(F)(F)F)nc3)c2)s1 [Example 146, tert-butyl 6-[3-(5-methyl-1,3-thiazol-2-yl)-5-({(1R)-1-[2-(trifluoromethyl)pyrimidin-5-yl]ethyl}carbamoyl)phenoxy]-2-azaspiro[3.3]heptane-2-carboxylate] | 45 | 159 | – | –
Cc1cnc(-c2cc(O[C@@H]3CCOC3)cc(C(=O)N[C@H](C)c3cnc(C(F)(F)F)cn3)c2)s1 [Example 147, 3-(5-methyl-1,3-thiazol-2-yl)-5-[(3R)-tetrahydrofuran-3-yloxy]-N-{(1R)-1-[5-(trifluoromethyl)pyrazin-2-yl]ethyl}benzamide] | 6 | 132 | – | –
Cc1cnc(-c2cc(OC3COC3)cc(C(=O)N[C@H](C)c3ccc(C(F)(F)F)nc3)c2)s1 [Example 148, 3-(5-methyl-1,3-thiazol-2-yl)-5-(oxetan-3-yloxy)-N-{(1R)-1-[6-(trifluoromethyl)pyridin-3-yl]ethyl}benzamide] | 33 | 794 | – | –
Cc1cnc(-c2cc(OC34CCN(CC3)CC4)cc(C(=O)N[C@H](C)c3cnc(C(F)(F)F)nc3)c2)s1 [Example 149] | 21 | 936 | – | –
CC(=O)N1CCC(Oc2cc(C(=O)N[C@H](C)c3cnc(C(F)(F)F)nc3)cc(-c3ncc(C)s3)c2)CC1 [Example 150, 3-[(1-acetylpiperidin-4-yl)oxy]-5-(5-methyl-1,3-thiazol-2-yl)-N-{(1R)-1-[2-(trifluoromethyl)pyrimidin-5-yl]ethyl}benzamide] | 12 | 83 | – | –
Cc1cnc(-c2cc(O[C@H]3CCOC3)cc(C(=O)N[C@H](C)c3cnc(C(F)F)nc3)c2)s1 [Example 151, N-{(1R)-1-[2-(difluoromethyl)pyrimidin-5-yl]ethyl}-3-(5-methyl-1,3-thiazol-2-yl)-5-[(3S)-tetrahydrofuran-3-yloxy]benzamide] | 31 | 333 | – | –
Cc1cnc(-c2cc(OC3COC3)cc(C(=O)N[C@H](C)c3cnc(C(F)F)nc3)c2)s1 [Example 152, N-{(1R)-1-[2-(difluoromethyl)pyrimidin-5-yl]ethyl}-3-(5-methyl-1,3-thiazol-2-yl)-5-(oxetan-3-yloxy)benzamide] | 45 | 523 | – | –
Cc1cnc(-c2cc(O[C@@H]3CCOC3)cc(C(=O)N[C@H](C)c3cnc(C(F)F)nc3)c2)s1 [Example 153, N-{(1R)-1-[2-(difluoromethyl)pyrimidin-5-yl]ethyl}-3-(5-methyl-1,3-thiazol-2-yl)-5-[(3R)-tetrahydrofuran-3-yloxy]benzamide] | 27 | 304 | – | –
Cc1cnc(-c2cc(O[C@@H]3CCOC3)cc(C(=O)N[C@H](C)c3ccc(C(F)(F)F)nc3)c2)s1 [Example 157, 3-(5-methyl-1,3-thiazol-2-yl)-5-[(3R)-tetrahydrofuran-3-yloxy]-N-{(1R)-1-[6-(trifluoromethyl)pyridin-3-yl]ethyl}benzamide] | 17 | 534 | – | –
Cc1cnc(-c2cc(OCCn3cncn3)cc(C(=O)N[C@H](C)c3ccc(C(F)(F)F)nc3)c2)s1 [Example 160, 3-(5-methyl-1,3-thiazol-2-yl)-5-[2-(1H-1,2,4-triazol-1-yl)ethoxy]-N-{(1R)-1-[6-(trifluoromethyl)pyridin-3-yl]ethyl}benzamide] | 28 | 1010 | – | –
Cc1cnc(-c2cc(OC3COC3)cc(C(=O)N[C@H](C)c3ccc(C(F)(F)F)nn3)c2)s1 [Example 161, 3-(5-methyl-1,3-thiazol-2-yl)-5-(oxetan-3-yloxy)-N-{(1R)-1-[6-(trifluoromethyl)pyridazin-3-yl]ethyl}benzamide] | 32 | 632 | – | –
Cc1cnc(-c2cc(OC3COC3)cc(C(=O)N[C@H](C)c3ccc(C(F)F)nc3)c2)s1 [Example 164] | 60 | 1110 | – | –
Cc1cnc(-c2cc(O[C@H]3C[C@H](N(C)C)C3)cc(C(=O)N[C@H](C)c3cnc(C(F)(F)F)nc3)c2)s1 [Example 165, 3-{[trans-3-(dimethylamino)cyclobutyl]oxy}-5-(5-methyl-1,3-thiazol-2-yl)-N-{(1R)-1-[2-(trifluoromethyl)pyrimidin-5-yl]ethyl}benzamide] | 81 | 1920 | – | –
Cc1cnc(-c2cc(O[C@@H]3CCOC3)cc(C(=O)NCc3cnc(C(F)(F)F)nc3)c2)s1 [Example 166, 3-(5-methyl-1,3-thiazol-2-yl)-5-[(3R)-tetrahydrofuran-3-yloxy]-N-{[2-(trifluoromethyl)pyrimidin-5-yl]methyl}benzamide] | 40 | 461 | – | –
Cc1cnc(-c2cc(OC3COC3)cc(C(=O)NCc3cnc(C(F)(F)F)nc3)c2)s1 [Example 167, 3-(5-methyl-1,3-thiazol-2-yl)-5-(oxetan-3-yloxy)-N-{[2-(trifluoromethyl)pyrimidin-5-yl]methyl}benzamide] | 72 | 893 | – | –
Cc1cnc(-c2cc(O[C@H]3CN4CCC3CC4)cc(C(=O)N[C@H](C)c3cnc(C(F)(F)F)nc3)c2)s1 [Example 168, 3-[(3R)-1-azabicyclo[2.2.2]oct-3-yloxy]-5-(5-methyl-1,3-thiazol-2-yl)-N-{(1R)-1-[2-(trifluoromethyl)pyrimidin-5-yl]ethyl}benzamide] | – | – | 19 | 1600
CCc1cnc(-c2cc(OC3COC3)cc(C(=O)N[C@H](C)c3cnc(C(F)(F)F)nc3)c2)s1 [Example 169, 3-(5-ethyl-1,3-thiazol-2-yl)-5-(oxetan-3-yloxy)-N-{(1R)-1-[2-(trifluoromethyl)pyrimidin-5-yl]ethyl}benzamide] | 9 | 70 | – | –
Cc1ccc(Oc2cc(C(=O)N[C@H](C)c3cnc(C(F)(F)F)nc3)cc(-c3ncc(C)s3)c2)nn1 [Example 170, 3-[(6-methylpyridazin-3-yl)oxy]-5-(5-methyl-1,3-thiazol-2-yl)-N-{(1R)-1-[2-(trifluoromethyl)pyrimidin-5-yl]ethyl}benzamide] | 165 | 2020 | – | –
Cc1cnc(-c2cc(O[C@@H]3CCOC3)cc(C(=O)N[C@H](C)c3ccc(C(F)F)nc3)c2)s1 [Example 171, N-{(1R)-1-[6-(difluoromethyl)pyridin-3-yl]ethyl}-3-(5-methyl-1,3-thiazol-2-yl)-5-[(3R)-tetrahydrofuran-3-yloxy]benzamide] | 26 | 573 | – | –
Cc1cnc(-c2cc(O[C@H]3CN4CCC3CC4)cc(C(=O)N[C@H](C)c3ccc(C(F)(F)F)nc3)c2)s1 [Example 172, 3-[(3R)-1-azabicyclo[2.2.2]oct-3-yloxy]-5-(5-methyl-1,3-thiazol-2-yl)-N-{(1R)-1-[6-(trifluoromethyl)pyridin-3-yl]ethyl}benzamide] | – | – | 31 | 2110
CCc1cnc(-c2cc(O[C@@H]3CN4CCC3CC4)cc(C(=O)N[C@H](C)c3cnc(C(F)(F)F)nc3)c2)s1 [Example 173, 3-[(3S)-1-azabicyclo[2.2.2]oct-3-yloxy]-5-(5-ethyl-1,3-thiazol-2-yl)-N-{(1R)-1-[2-(trifluoromethyl)pyrimidin-5-yl]ethyl}benzamide] | – | – | 5 | 311
CCc1cnc(-c2cc(O[C@H]3CN4CCC3CC4)cc(C(=O)N[C@H](C)c3cnc(C(F)(F)F)nc3)c2)s1 [Example 174, 3-[(3R)-1-azabicyclo[2.2.2]oct-3-yloxy]-5-(5-ethyl-1,3-thiazol-2-yl)-N-{(1R)-1-[2-(trifluoromethyl)pyrimidin-5-yl]ethyl}benzamide] | – | – | 11 | 790
Cc1cnc(-c2cc(O[C@@H]3CN4CCC3CC4)cc(C(=O)N[C@H](C)c3ccc(C(F)(F)F)nc3)c2)s1 [Example 175, 3-[(3S)-1-azabicyclo[2.2.2]oct-3-yloxy]-5-(5-methyl-1,3-thiazol-2-yl)-N-{(1R)-1-[6-(trifluoromethyl)pyridin-3-yl]ethyl}benzamide] | – | – | 23 | 1270
Cc1cnc(-c2cc(Oc3nnc(C)s3)cc(C(=O)N[C@H](C)c3ccc(C(F)(F)F)nc3)c2)s1 [Example 176, 3-[(5-methyl-1,3,4-thiadiazol-2-yl)oxy]-5-(5-methyl-1,3-thiazol-2-yl)-N-{(1R)-1-[6-(trifluoromethyl)pyridin-3-yl]ethyl}benzamide] | 29 | 607 | – | –
Cc1cnc(-c2cc(OC[C@H]3COCCO3)cc(C(=O)N[C@H](C)c3cnc(C(F)(F)F)nc3)c2)s1 [Example 178, 3-[(2R)-1,4-dioxan-2-ylmethoxy]-5-(5-methyl-1,3-thiazol-2-yl)-N-{(1R)-1-[2-(trifluoromethyl)pyrimidin-5-yl]ethyl}benzamide] | 39 | 1880 | – | –
Cc1cnc(-c2cc(OC[C@H]3COCCO3)cc(C(=O)N[C@H](C)c3ccc(C(F)(F)F)nn3)c2)s1 [Example 179, 3-[(2R)-1,4-dioxan-2-ylmethoxy]-5-(5-methyl-1,3-thiazol-2-yl)-N-{(1R)-1-[6-(trifluoromethyl)pyridazin-3-yl]ethyl} benzamide] | 13 | 703 | – | –
Cc1cnc(-c2cc(OC[C@@H]3COCCO3)cc(C(=O)N[C@H](C)c3ccc(C(F)(F)F)nc3)c2)s1 [Example 180, 3-[(2S)-1,4-dioxan-2-ylmethoxy]-5-(5-methyl-1,3-thiazol-2-yl)-N-{(1R)-1-[6-(trifluoromethyl)pyridin-3-yl]ethyl}benzamide] | 31 | 1400 | – | –
